Results on 2 compounds are retold here after ChEMBL document CHEMBL4002569, “Improved anticancer and antiparasitic activity of new lawsone Mannich bases” (Eur J Med Chem, 2017).

Structures are written as SMILES. pIC50: −log10 of the molar value. Calls of active or inactive are those of the source. The rule behind the calls is not given here.

In data set [1] the test system is Entamoeba histolytica. As to the kind of experiment: Antiamoebic activity against Entamoeba histolytica assessed as growth inhibition at 200 ug/ml after 24 hrs by trypan blue dye-based hemocytometer relative to control. Conditions: read-out: GI. The class given is functional.
Data set [2] relates to Entamoeba histolytica. In words: Antiamoebic activity against Entamoeba histolytica assessed as growth inhibition at 200 ug/ml after 48 hrs by trypan blue dye-based hemocytometer relative to control. It counts as functional. Conditions: read-out: GI.
Data set [3] deals with Entamoeba histolytica. As to the kind of experiment: Antiamoebic activity against Entamoeba histolytica assessed as growth inhibition at 200 ug/ml after 72 hrs by trypan blue dye-based hemocytometer relative to control. It counts as functional. Conditions: read-out: GI.
The subject of another data set is MDA-MB-231. In words: Antiproliferative activity against human MDA-MB-231 cells after 96 hrs by MTT assay. Conditions: MDA-MB-231, 96 h. The class given is functional, cell-based.
The subject of a further data set is BXPC-3. In words: Antiproliferative activity against human BxPC3 cells after 96 hrs by MTT assay. The class given is functional, cell-based. Particulars: BXPC-3, 96 h. For orientation: Tetrazolium assays rely on reduction of a dye to a coloured formazan, in cell work by metabolically active cells.
For a further data set, the system named is PC-3. As to the kind of experiment: Antiproliferative activity against human PC3 cells after 96 hrs by MTT assay. The class given is functional, cell-based. Particulars: PC-3, 96 h.
For the next data set, the system named is MCF-10A. As to the kind of experiment: Antiproliferative activity against human MCF10A cells at 50 uM after 96 hrs by MTT assay. It counts as cell-based.
Data set [4] deals with 518A2. As to the kind of experiment: Antiproliferative activity against human 518A2 cells after 72 hrs by MTT assay. It counts as functional, cell-based. Particulars: 518A2, 72 h.
In the next data set the test system is HCT-116. As to the kind of experiment: Antiproliferative activity against human HCT116 cells after 72 hrs by MTT assay. Conditions: HCT-116, 72 h. The class given is functional, cell-based.
A further data set concerns KB-V1. In words: Antiproliferative activity against vinblastine-resistant human KBV1 cells after 72 hrs by MTT assay. Particulars: KB-V1, 72 h. The class given is functional, cell-based.
The subject of a further data set is PANC-1. In words: Antiproliferative activity against human PANC1 cells after 72 hrs by MTT assay. The class given is functional, cell-based. Conditions: PANC-1, 72 h.
The nature of data set [5]: Selectivity index, ratio of IC50 for human MCF10A cells to IC50 for human 518A2 cells. The class given is functional.
Data set [6] is described as follows: Selectivity index, ratio of IC50 for human MCF10A cells to IC50 for human HCT116 cells. It counts as functional.
Data set [7] is described as follows: Selectivity index, ratio of IC50 for human MCF10A cells to IC50 for vinblastine-resistant human KBV1 cells. It counts as functional.
The nature of data set [8]: Selectivity index, ratio of IC50 for human MCF10A cells to IC50 for human PANC1 cells. The class given is functional.
Data set [9] can be described thus: Selectivity index, ratio of IC50 for human MCF10A cells to IC50 for human MDA-MB-231 cells. It counts as functional.
Data set [10] is described as follows: Selectivity index, ratio of IC50 for human MCF10A cells to IC50 for human BxPC3 cells. The class given is functional.
A short description of data set [11]: Selectivity index, ratio of IC50 for human MCF10A cells to IC50 for human PC3 cells. It counts as functional.
For data set [12], the system named is 518A2. As to the kind of experiment: Induction of reactive oxygen species generation in human 518A2 cells at 0.1 uM after 24 hrs by NBT assay relative to control. The class given is functional.
The subject of data set [13] is 518A2. In words: Induction of reactive oxygen species generation in human 518A2 cells at 0.5 uM after 24 hrs by NBT assay relative to control. It counts as functional.
The subject of data set [14] is Trypanosoma brucei brucei. In words: Antitrypanosomal activity against bloodstream trypomastigote form of Trypanosoma brucei brucei 65.3 […] after 72 hrs by Alamar Blue assay. It counts as functional, cell-based. Conditions: Trypanosoma brucei, 65.3, 72 h. For orientation: Alamar Blue is a resazurin reagent that responds to reducing activity.

The subject of data set [15] is Trypanosoma brucei brucei. In words: Antitrypanosomal activity against bloodstream trypomastigote form of Trypanosoma brucei brucei 65.3 assessed as deformation of microtubule cytoskeleton at 1 to 10 uM after 3 to 6 hrs by DAPI staining-based fluorescence microscopic method. It counts as functional.
The subject of data set [16] is Trypanosoma brucei brucei. In words: Antitrypanosomal activity against bloodstream trypomastigote form of Trypanosoma brucei brucei 65.3 assessed as decrease in parasite viability at 1 to 10 uM after 1 hr by DAPI staining-based fluorescence microscopic method. It counts as functional.
Data set [17] deals with HeLa. As to the kind of experiment: Cytotoxicity against human HeLa cells assessed as effect on cytoskeleton at 10 uM after 1 to 9 hrs by DAPI staining-based fluorescence microscopic method. It counts as cell-based.
Data set [18] concerns HeLa. As to the kind of experiment: Cytotoxicity against human HeLa cells assessed as effect on cell viability at 10 uM after 1 to 9 hrs by DAPI staining-based fluorescence microscopic method.
Data set [19] relates to Entamoeba histolytica. As to the kind of experiment: Antiamoebic activity against Entamoeba histolytica assessed as growth inhibition at 100 ug/ml after 24 hrs by trypan blue dye-based hemocytometer relative to control. Conditions: read-out: GI. The class given is functional.
The test system of data set [20] is Entamoeba histolytica. As to the kind of experiment: Antiamoebic activity against Entamoeba histolytica assessed as growth inhibition at 50 ug/ml after 24 hrs by trypan blue dye-based hemocytometer relative to control. Particulars: read-out: GI. The class given is functional.
Data set [21] has as its system Entamoeba histolytica. In words: Antiamoebic activity against Entamoeba histolytica assessed as growth inhibition at 25 ug/ml after 24 hrs by trypan blue dye-based hemocytometer relative to control. It counts as functional. Particulars: read-out: GI.
The subject of data set [22] is Entamoeba histolytica. As to the kind of experiment: Antiamoebic activity against Entamoeba histolytica assessed as growth inhibition at 100 ug/ml after 48 hrs by trypan blue dye-based hemocytometer relative to control. The class given is functional. Particulars: read-out: GI.
For data set [23], the system named is Entamoeba histolytica. As to the kind of experiment: Antiamoebic activity against Entamoeba histolytica assessed as growth inhibition at 50 ug/ml after 48 hrs by trypan blue dye-based hemocytometer relative to control. It counts as functional. Conditions: read-out: GI.
The test system of data set [24] is Entamoeba histolytica. In words: Antiamoebic activity against Entamoeba histolytica assessed as growth inhibition at 25 ug/ml after 48 hrs by trypan blue dye-based hemocytometer relative to control. Conditions: read-out: GI. It counts as functional.
Data set [25] deals with Entamoeba histolytica. As to the kind of experiment: Antiamoebic activity against Entamoeba histolytica assessed as growth inhibition at 100 ug/ml after 72 hrs by trypan blue dye-based hemocytometer relative to control. It counts as functional. Particulars: read-out: GI.
In data set [26] the test system is Entamoeba histolytica. As to the kind of experiment: Antiamoebic activity against Entamoeba histolytica assessed as growth inhibition at 50 ug/ml after 72 hrs by trypan blue dye-based hemocytometer relative to control. The class given is functional. Particulars: read-out: GI.
The subject of data set [27] is Entamoeba histolytica. As to the kind of experiment: Antiamoebic activity against Entamoeba histolytica assessed as growth inhibition at 25 ug/ml after 72 hrs by trypan blue dye-based hemocytometer relative to control. It counts as functional. Particulars: read-out: GI.

Regarding `Cc1ncc([N+](=O)[O-])n1CCO` [METRONIDAZOLE], the inhibition of growth at 200 µg/mL in the data set on Entamoeba histolytica [1] came to 54.1%; in the data set with Entamoeba histolytica [2], 58.7%; in the data set with Entamoeba histolytica [3] it was 60.4%.

One may read the pIC50 as −log10 of the IC50, conventionally taken in molar units. A low value points to a high IC50. `CCCCCCCCCCCCCCCCNC(C1=C(O)C(=O)c2ccccc2C1=O)c1ccccn1` (centres undefined): the pIC50 is 5.96 in the data set on MDA-MB-231; 6.09 with BXPC-3; 6.17 in the data set on PC-3; 5.85 with 518A2 [4]; 5.68 in the data set on HCT-116; 6.08 in the data set with KB-V1. In addition, the values for the pIC50 (with PANC-1; in data set [14]) were 5.66 and 6.52, respectively. Also, the “growth inhibition (GI)” value with MCF-10A is on record as “Non-Toxic”. The “Ratio IC50” value in data set [5] was >35; in [6] it was >24; in [7], >60; in [8], >22; in data set [9], >46; in data set [10] it was >61. In addition, the “Ratio IC50” value in data set [11] is reported as >75. The Activity with 518A2 [12] is on record as 50%; in the data set on HeLa [17], “Non-Toxic”; with HeLa [18], “Non-Toxic”. In addition, the outcome (with 518A2 [13]; in data set [15]) was Active. In data set [16], the outcome was inactive. Besides, the results for the inhibition of growth at 100 µg/mL in the data set on Entamoeba histolytica [19], with Entamoeba histolytica [22] and with Entamoeba histolytica [25] were 77.8%, 80.9% and 82.8%, respectively. Also, the figures for the inhibition of growth at 50 µg/mL with Entamoeba histolytica [20], in the data set with Entamoeba histolytica [23] and in the data set on Entamoeba histolytica [26] were 66.6%, 82.1% and 85.3%, respectively. For the same compound, the figures for the inhibition of growth at 25 µg/mL in the data set on Entamoeba histolytica [21], in the data set with Entamoeba histolytica [24] and in the data set with Entamoeba histolytica [27] were 60%, 66% and 70.6%, respectively.
